For 73 compounds, EC50, IC50 and outcome results are on record in PubChem BioAssay AID179 (DTP/NCI, 2004).

This assay concerns CEM cells HIV-1 protection, formazan growth assay. Briefly: NCI AIDS Antiviral Assay. Particulars: for pIC50: measured here: growth of uninfected CEM cells. In a few lines:
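Five concentrations of each compound were applied to infected and uninfected human CEM cells. Protection from HIV-1 was judged from growth measured with a soluble formazan assay.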

pEC50, pIC50: −log10 of the molar value. The source made the active and inactive calls.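 How the source made its calls: active means compounds giving half or more protection of infected cells from virus-caused growth loss, again on retest; inactive means the rest.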 Where only a bound is given, the exact number is not on record here.

The pEC50 is −log10 of the EC50, conventionally taken in molar units. For orientation: pIC50 means the IC50 on a negative log10 scale, so that one unit is a factor of ten. `CCSC1(SCC)CC(Cc2ccc(OC)cc2)N(C=NC(C)(C)C)C1` (configuration not stated): the pEC50 was under 3.62 and the pIC50 is 4.24. On to `COC(=O)C1CC(F)(F)[C@H]1n1cnc2c(N)ncnc21` (some centres not stated), for which the pEC50 is under 3.62 and the pIC50 is under 3.62.

In the case of `CNC(=O)OC(C)CN1c2ccccc2Sc2ccccc21` (configuration not stated), the pEC50 is under 3.70 and the pIC50 was 4.38. Taken in the same sequence, the figures for `CCC[CH2][Sn]([CH2]CCC)([O]C(=O)c1cc(F)ccc1F)[O]C(=O)c1cc(F)ccc1F` were under 4.88 and 6.00. With `COc1ccc(C2Oc3cc(OC)c(OC)cc3C2CCl)cc1OC` (configuration not stated), the pEC50 is under 3.70 and the pIC50 was 3.97. On to `O=C(Nc1nc2ccccc2n1Cc1ccc(Cl)cc1)NC12CC3CC(CC(C3)C1)C2`, for which the pEC50 was under 3.70 and the pIC50 was under 3.70. Regarding `COCCOCCOCCOCCOCCOCCOCCOCCOCCOCCOCCOCCOCCOCCOCCOCCOCC(=O)N(CCn1ccc(NC(c2ccccc2)(c2ccccc2)c2ccccc2)nc1=O)CCn1cnc2nc(NC(=O)c3ccccc3)[nH]c(=O)c21`, the pEC50 was under 3.77 and the pIC50 is 4.07.

In the case of `CCC1(Br)OC1=O` (configuration not stated), the pEC50 was under 3.70 and the pIC50 was 3.97.

Regarding `CC(C)N(C(=O)C12C3C4C1C1C2C3C41I)C(C)C` (configuration not stated), the pEC50 is under 3.72 and the pIC50 is under 3.72. `COC(=O)/C(=C\Nc1cccc(C)n1)S(=O)(=O)c1ccc(C)cc1`: the pEC50 was under 3.70 and the pIC50 was 4.18. Taken in the same sequence, the figures for `CN(CCN(C)C(=O)CCn1ccc(=O)[nH]c1=O)C(=O)CCn1ccc(=O)[nH]c1=O` were under 4.49 and under 4.49. As to `CC1CN(S(=O)(=O)c2cccc3cnccc23)CCN1` (configuration not stated), the pEC50 is under 3.90 and the negative logarithm of the IC50 (pIC50) is 4.42. `C[n+]1c(/C=C/c2ccc3c(c2)OCO3)ccc2ccccc21`: the pEC50 is under 3.70 and the pIC50 was 5.23. For `COc1cc2c(c(OC)c1OC)-c1oncc1CC2`, the pEC50 was 3.78 and the pIC50 is 3.55. For `COc1ccc(C2(CC(C)O)SCCCS2)cc1` (configuration not stated) the same measures were under 3.70 and 3.94. On to `O=C(O)c1ccc2c3c(ncnc13)-c1ccccc1C2=O`, for which the pEC50 was under 3.70 and the pIC50 was 4.83.

For `CCCCCCOP(=O)(OCCCCCC)C(NC(=O)OCC)(C(F)(F)F)C(F)(F)F`, the pEC50 is under 3.70 and the pIC50 is 4.66.

Take `CCC(C(=O)OC)C1CCN(C)C(=O)C12CO2` (configuration not stated): the pEC50 is under 2.99 and the pIC50 is under 2.99. In the case of `C[C@]12Cc3conc3C(O)=C1CC[C@@H]1C2CC[C@@]2(C)C1CC[C@]2(C)O` (some centres not stated), the result was inactive. Take `COc1cccc(NC(=O)CSc2nnc(Cc3ccccc3)o2)c1`: the pEC50 was under 4.00 and the pIC50 was under 4.00.

As for `CCC(=O)OCNC(=O)NNC(=O)CCCC(=O)NNC(=O)NCOC(=O)CC`, the pEC50 is under 3.70 and the pIC50 is under 3.70.

`CC(=O)Oc1cc(OC(C)=O)c(CC=C(C)C)c(-c2cc3ccc(OC(C)=O)c(C/C=C(\C)CCC=C(C)C)c3o2)c1`: the pEC50 is under 5.34 and the pIC50 was under 5.34. With `N#C/C(=C\c1cc(Cl)cc(Cl)c1O)c1ccc([N+](=O)[O-])cc1`, the pEC50 is under 4.00 and the pIC50 is 4.85.

Regarding `C[N+]1(C)C/C(=C\c2ccncc2)C(=O)/C(=C/c2ccncc2)C1`, the result was inactive. As to `C(=C\c1ccccc1)/Cn1nc(-c2ccccc2)nc1-c1cnccn1`, the pEC50 was 3.84 and the pIC50 is under 3.70. As to `CCC(C)C1(C2CCCC2)NC(=O)NC1=O` (configuration not stated), the pEC50 was under 3.70 and the pIC50 was under 3.70. `C/C=C/C(=O)[C@@H](O)C(C)(C)C`: the result was inactive.

For the compound `C=CC(=O)N1C/C(=C\c2ccc(Cl)c(Cl)c2)C(=O)/C(=C/c2ccc(Cl)c(Cl)c2)C1`, the pEC50 is under 5.23 and the pIC50 is 7.43. Turning to `COc1ccc(C(C#N)NNC(=O)c2ccccc2O)cc1OC` (configuration not stated), the pEC50 was under 4.10 and the pIC50 is 5.39. For the compound `COc1cccc(/C=C2\N=C(Cl)OC2=O)c1O`, the pEC50 was under 4.69 and the pIC50 is under 4.69. As to `C1CN2CCO[SiH](O1)OCC2`, the result was inactive. As for `C=CCOc1ccc(C2(O)c3ccccc3C3=NCCCN32)cc1` (configuration not stated), the pEC50 is under 3.70 and the pIC50 is 3.83.

As to `Cn1cnc([N+](=O)[O-])c1Sc1nc2ccccc2s1`, the pEC50 was under 4.61 and the pIC50 was 5.49. For the compound `CC(C)(C)OC(=O)NCCCCC(NC(=O)OCc1ccccc1)C(N)=O` (configuration not stated), the pEC50 is under 3.70 and the pIC50 is under 3.70.

Take `O=[N+]([O-])C(C(Cl)=C(Cl)Cl)=C(N1CCOCC1)N1CCOCC1`: the pEC50 was under 3.70 and the pIC50 is 3.91.

On to `Cc1cccc2c1Oc1ncccc1C2NC(=O)CN(C)C` (configuration not stated), for which the pEC50 is under 3.70 and the pIC50 was under 3.70. Turning to `O=[N+]([O-])c1ccc2occ3c2c1CCC3`, the pEC50 is 4.17 and the pIC50 was 3.58. Regarding `O/N=C\c1c2c(cc3c1CCC3)CCC2`, the pEC50 was under 3.70 and the pIC50 is under 3.70.

On to `O=c1cc(-c2ccccc2)oc2c(O)c(O)cc(O)c12`, for which the negative logarithm of the EC50 (pEC50) was under 3.73 and the pIC50 is under 3.73. `O=c1oc2ccccc2c(O)c1/C=N/C(=S)Nc1ccccc1`: the pEC50 is under 3.70 and the pIC50 is 4.29.

Turning to `S=c1ssc2ccccc12`, the pEC50 was under 4.01 and the pIC50 is 4.04. On to `CCOC(=O)/C(C1=NCCN1C)=C(\O)c1ccccc1`, for which the pEC50 is under 3.04 and the pIC50 was under 3.04. With `CC(=O)OC[C@H]1CN(OC(C)=O)C[C@@H](n2cc(C)c(=O)[nH]c2=O)O1`, the pEC50 was under 3.70 and the pIC50 is under 3.70. For the compound `ClC1C(Cl)C2CC1C1CC3OC3C21` (configuration not stated), the pEC50 was under 3.70 and the pIC50 is under 3.70. For the compound `COc1ccccc1NC(=S)N=Nc1c(O)[nH]c2ccccc12`, the pEC50 was under 3.70 and the pIC50 is 3.76.

As to `Cn1c(=O)nc2n(-c3ccc(Cl)cc3Cl)c3ccccc3nc-2c1=O`, the result was inactive. For `O=C(NC(O)C(Cl)(Cl)Cl)NC(O)C(Cl)(Cl)Cl` (configuration not stated), the pEC50 was under 3.70 and the negative-log IC50 (pIC50) is under 3.70. As to `COCOc1ccc(Cn2c(=O)n(C)c(=O)c3c2ncn3C)cc1[N+](=O)[O-]`, the pEC50 is under 4.30 and the pIC50 was under 4.30. For `CCOC(=O)NC(Nc1ccc(Cl)cn1)(C(F)(F)F)C(F)(F)F`, the pEC50 was under 3.70 and the pIC50 is under 3.70. In the case of `O=[N+]([O-])/N=c1/nc2scc(-c3ccc([N+](=O)[O-])cc3)n2s1`, the pEC50 is under 3.70 and the pIC50 is 4.53. Turning to `O=C(O)c1nc2cc(C(F)(F)F)ccc2[nH]c1=O`, the pEC50 is under 3.70 and the pIC50 was under 3.70. Take `c1ccc(NC2(c3nnnn3C3CCCCC3)CCNCC2)cc1`: the pEC50 was under 3.70 and the pIC50 was 4.46. On to `CCOC(=O)C(C(=O)OCC)C(NC(=O)Nc1cc(C(F)(F)F)ccc1OC)(C(F)(F)F)C(F)(F)F`, for which the outcome was inactive. Regarding `CC12CCC(CC(=O)/C1=C(/Br)I)C2(C)C` (configuration not stated), the pEC50 is under 3.70 and the pIC50 is 4.44. Turning to `OC1(c2ccccc2)CSC2=Nc3ccccc3C3CCN1N23` (configuration not stated), the pEC50 was under 3.70 and the pIC50 was 4.44. For `COC(=O)[C@]1(C)CCC[C@]2(C)c3ccc(C(C)C)cc3C(=O)[C@@H](Br)[C@@H]12`, the pEC50 was under 3.70 and the pIC50 was 5.07.

Take `CCCCCCCCCCCCCCCCCCOC(COP(=O)(O)OCC1OC(n2cc(F)c(=O)[nH]c2=O)CC1O)COP(=O)(O)OCC1OC(n2cc(C)c(=O)[nH]c2=O)CC1N=[N+]=[N-]` (configuration not stated): the pEC50 was under 5.24 and the pIC50 is 7.30. For the compound `CN(C)C(=O)N(CCC#N)CCN(C(=O)N(C)C)c1ccccc1`, the pEC50 is under 3.70 and the pIC50 is under 3.70. On to `CS1(C)=NC(=O)c2cc([N+](=O)[O-])ccc2N=1`, for which the pEC50 was under 3.91 and the pIC50 was under 3.91. With `CC1=CC(=O)/C(=C\N2C(=O)CC(=O)NC2=S)C(=O)O1`, the pEC50 is under 4.00 and the pIC50 is under 4.00. Consider `COC(=O)C1Cc2c(n(C)c3ccccc23)C(c2ccccc2)N1` (configuration not stated), for which the result was inactive. `O=C(/C=C/c1ccc(O)c(O)c1)OC1C[C@@](O)(C(=O)O)C[C@@H](O)[C@H]1OC(=O)/C=C/c1ccc(O)c(O)c1` (some centres not stated): the pEC50 was under 3.46 and the negative logarithm of the IC50 (pIC50) is 3.81. With `CC(=O)NNc1nc(C)c(C(/C=C/c2cccc([N+](=O)[O-])c2)=N/NC(=S)NN)s1`, the pEC50 is under 4.14 and the pIC50 was under 4.14. On to `CCOc1csc([C@H]2CCC3[C@@H]4CC=C5C[C@@H](O)CC[C@]5(C)C4CC[C@@]32C)n1` (some centres not stated), for which the pEC50 is under 5.47 and the pIC50 is under 5.47.

For `CC(=O)OCC(OC(C)=O)C(OC(C)=O)C(/C=N/N(C(C)=O)S(=O)(=O)c1ccc(/C=C2\NC(=O)NC2=O)cc1)OC(C)=O` (configuration not stated), the pEC50 is under 3.70 and the pIC50 is 3.98. `COC(=O)c1ccc(Cl)cc1NC(=O)C1CCCCC1`: the result was inactive. With `CCOC(=O)C(=O)Nc1c(F)cc(F)cc1Br`, the pEC50 was under 3.09 and the pIC50 was under 3.09. With `CCN1CN(c2ccccc2)C2(CCN(CC(CC3OCCO3)c3ccc(F)cc3)CC2)C1=O` (configuration not stated), the pEC50 is under 3.70 and the pIC50 is 5.14. As for `CCN(CC)CCN(C)CCc1ccc(Br)cc1`, the pEC50 was under 3.90 and the pIC50 was 3.95. For `CC1CCOS(=O)O1` (configuration not stated), the pEC50 was under 2.74 and the pIC50 is under 2.74. As to `Cc1ccc(/C([O-])=C(\C(=S)Nc2cccc(C)c2)[n+]2ccccc2)cc1`, the outcome was inactive.

`CC1=CC(=O)/C(=C/n2c(=S)[nH]c3cc(C)ccc32)C(=O)O1`: the pEC50 is under 3.70 and the pIC50 is 3.71.

For the compound `CC12CCC(=O)N1c1ccc(Cl)cc1N2` (configuration not stated), the pEC50 is under 3.94 and the pIC50 was under 3.94.
